Data: patent EP1348714B1, “Polypeptide useful as anti-allergic/antiasthmatic, methods for the preparation thereof and pharmaceutical compositions containing such polypeptide and their use” (COUNCIL OF SCIENTIFIC AND INDUSTRIAL RESEARCH, priority 2002, dated 2003)
Square brackets hold non-standard residues; d marks the D form. Peptide text beside a SMILES is read from it. Sar = CNCC(=O)O

How the values were obtained:
[1] = other pharmacological studies (cardiovascular, CNS, anti-inflammatory, diuretic); format: in vivo; conditions: up to a dose of 10 mg/kg
[2] = tested on: Normal mast cells (Noninnunological: Comp. 48/80); assay: mast cell degranulation by comp 48/80 in normal mast cells; format: in vivo, rats; conditions: dose 50.0 pro (10.0 x 5 d) mg/kg x days
Egg-albumin = assay: aerosol test, egg-albumin challenge in sensitised guinea pigs; format: in vivo; conditions: dose 50 mg/kg (ip)
[3] = tested on: Sensitised mast cells (Immunological: Egg albumin); assay: mast cell degranulation by egg albumin in sensitised mast cells; format: in vivo, rats; conditions: dose 50.0 pro (10.0 x 5 d) mg/kg x days
[4] = tested on: passive cutaneous anaphylaxis (PCA); assay: passive cutaneous anaphylaxis (PCA) test in rats; format: in vivo
[5] = tested on: sensitised guinea pig ileum; assay: antigen (egg albumin) induced contraction of sensitised guinea pig ileum (Schultz-Dale phenomenon)

## C[C@H](N)C(=O)NCC(=O)NCC(=O)N[C@@H](CC(=O)O)C(=O)N(C)CC(=O)N[C@@H](CCCCN)C(=O)O [96/199, L-alanyl-glycyl-glycyl-L-aspartyl-sar-L-1ys] (H-AGGD[Sar]K-OH)
[1]
  cardiovascular, Central Nervous System (CNS), anti-inflammatory, diuretic activities: No significant effects

## O=C([O-])c1cc(=O)c2c(OCC(O)COc3cccc4oc(C(=O)[O-])cc(=O)c34)cccc2o1.[Na+].[Na+] [DSCG, disodium cromoglycate]
[2]
  % Protection: 72%
Egg-albumin
  % Protection Egg-albumin: 64%
[3]
  % Protection: 71%
[4]; rat, 50 mg/kg by nasal route
  anti PCA activity: 81%
[4]; rats, dose 50.0 mg/kg (IP)
  % Anti-PCA activity: 77%
[5]; concentration 1.0 (unit not given)
  % Protection to ileum contraction induced by egg albumin: No block
[5]; concentration 2.0 (unit not given)
  % Protection to ileum contraction induced by egg albumin: 18%
[5]; concentration 3.0 (unit not given)
  % Protection to ileum contraction induced by egg albumin: 59%
